Measurements taken from patent US20100190713A1, “USE OF THE PEPTIDE THYMOSIN BETA 4 ALONE OR IN COMBINATION WITH CECROPIN A AS A THERAPEUTIC AGENT” (priority 2007, published 2010).
Where no end group is shown, it is not given here.

Experiments:
[1] = tested on: Primary Human endothelial cells (HUVEC); assay: Endothelial cell migration assay; format: cell-based; details: 10 micrograms per ml, 22 hours
Method: Thereafter, designated concentration of testing peptides—10 micrograms per ml—was added in duplicate wells.

murine spleen cells = assay: Th1/Th2 cytokine profiling assay (Ovalbumin-restimulated spleen cells, CBA kit); format: cell-based, Balb/c mice; details: 10 micrograms per ml, 72 hours
HCMV strain AD169 = assay: HCMV plaque formation assay in MRC-5 cells; format: cell-based; details: 10 micrograms per ml, 7-10 days
Excerpt: Ganciclovir was used as positive control.

HUVEC = assay: Endothelial tube formation assay; format: cell-based, human; details: 10 micrograms per ml, 20 hours
Excerpt: Positive control wes vehicle only.

[2] = tested on: RAW 264.7 (Mouse leukaemic monocyte macrophage cell line) cells; assay: Phagocytosis assay (Fluorescein-labeled Escherichia coli, flow cytometry); format: cell-based; details: 10 micrograms per ml
Method: RAW 264.7 (Mouse leukaemic monocyte macrophage cell line) cells were obtained from ATCC and grown in RPMI 1640 medium containing 10% FBS. Cells were incubated in 12×75 mm tubes at 37° C. with test peptides—10 micrograms per ml—for 30 min prior to adding Fluorescein-labeled Escherichia coli bacteria as the agent to be ingested. After the cells were incubated for additional 60 min at 37° C. and allowed to ingest the Fluorescein-labeled Escherichia coli bacteria, cells were fixed with 1% paraformaldehyde. The samples were then analyzed by flow cytometry to determine the amount of phagocytosis as a function of brightness (the greater the phagocytic activity, the more fluorescence in the macrophage population). Data are reported as % positive and the mean fluorescence intensity (MFI) of positively stained cells.

[3] = tested on: hepatitis B virus (HBV) ayw strain; assay: HBV experimental assay system, HepG2-2.2.15, secreted HBV DNA by TaqMan PCR; format: cell-based; details: 10 micrograms per ml; HepG2-2.2.15, six days

Substance	inhibition of the migration of human endothelial cells [1] [%]	production of IFN-γ (decreased by) (murine spleen cells) [%]	production of IL-2 (decreased by) (murine spleen cells)	production of IL-4 (induced by) (murine spleen cells)	production of IL-5 (decreased by) (murine spleen cells)	production of TNF-alpha (change) (murine spleen cells)	inhibition of HCMV plaque formation as compared to the virus control experiment (HCMV strain AD169) [%]	inhibition of the tube formation of human endothelial cells (HUVEC) [%]	induction of phagocytosis as compared to the virus control experiment [2]	inhibition of HBV replication as compared to the virus control infection [3]
Lys-Trp-Lys-Leu-Phe-Lys-Lys-Ile-Glu-Lys-Val-Gly-Gln-Asn-Ile-Arg-Asp-Gly-Ile-Ile-Lys-Ala-Gly-Pro-Ala-Val-Ala-Val-Val-Gly-Gln-Ala-Thr-Gln-Ile-Ala-Lys-NH2 (KWKLFKKIEKVGQNIRDGIIKAGPAVAVVGQATQIAK-NH2) [Peptide 2]	15	65.6	42.7%	did not significantly change	37.0%	did not significantly change	2.1	10	did not induce phagocytosis	10.5%
Ac-Ser-Asp-Lys-Pro-Asp-Met-Ala-Glu-Ile-Glu-Lys-Phe-Asp-Lys-Ser-Lys-Leu-Lys-Lys-Thr-Glu-Thr-Gln-Glu-Lys-Asn-Pro-Leu-Pro-Ser-Lys-Glu-Thr-Ile-Glu-Gln-Glu-Lys-Gln-Ala-Gly-Glu-Ser-OH (SDKPDMAEIEKFDKSKLKKTETQEKNPLPSKETIEQEKQAGES; printed: Ser-Asp-Lys-Pro-Asp-Met-Ala-Glu-Ile-Glu-Lys-Phe-Asp-Lys-Ser-Lys-Leu-Lys-Lys-Thr-Glu-Thr-Gln-Glu-Lys-Asn-Pro-Leu-Pro-Ser-Lys-Glu-Thr-Ile-Glu-Gln-Glu-Lys-Gln-Ala-Gly-Glu-Ser-) [Peptide 1]		52.7	did not significantly change	31.6%	did not significantly change	did not significantly change			45.7%	no effect
